Holding throughout (experiment): biochemical
For one assay, the target named is T1, MMP-1 (Homo sapiens, UniProt P03956).
T1 construct: made in house; host or cells: transfected HT-1080 cells (provided by Dr. Harold Welgus, Washington University)
T1 sequence (P03956 100-469): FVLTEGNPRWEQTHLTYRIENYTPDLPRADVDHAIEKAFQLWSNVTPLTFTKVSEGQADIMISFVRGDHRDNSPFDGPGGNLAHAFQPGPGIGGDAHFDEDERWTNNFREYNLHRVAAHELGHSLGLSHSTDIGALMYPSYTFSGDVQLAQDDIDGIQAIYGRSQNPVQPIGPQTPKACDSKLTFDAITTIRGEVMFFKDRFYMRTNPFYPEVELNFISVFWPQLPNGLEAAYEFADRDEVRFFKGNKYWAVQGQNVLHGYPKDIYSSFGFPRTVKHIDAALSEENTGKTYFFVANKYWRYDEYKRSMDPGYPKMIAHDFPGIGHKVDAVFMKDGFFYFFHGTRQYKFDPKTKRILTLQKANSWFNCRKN
The note with it: recombinant human MMP-1, MCA peptide substrate 4 μM, pH 7.5, room temperature; read-out: MMP-1 IC50. The procedure, abridged: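 APMA- or trypsin-activated human MMPs (MMP-1 from transfected HT-1080 cells, MMP-2 from transfected cells) preincubated with inhibitor in 1% DMSO at room temperature, then 4 μM MCA-Pro-Leu-Gly-Leu-Dpa-Ala-Arg-NH2 added in Tris/NaCl/CaCl2 buffer pH 7.5. IC50 from fluorescence reduction versus inhibitor concentration.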

The target in a further assay is T2, MMP-13 (Homo sapiens, UniProt P45452).
T2 construct: made in house; host or cells: baculovirus / insect cells
The following applies: recombinant human MMP-13, MCA peptide substrate 4 μM, pH 7.5, room temperature; read-out: MMP-13 IC50. The method, boiled down: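 APMA- or trypsin-activated enzymes were preincubated with inhibitor for 5 min at room temperature, then the fluorogenic substrate MCA-Pro-Leu-Gly-Leu-Dpa-Ala-Arg-NH2 was added to a final 4 μM.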

For another assay, the target named is T3, MMP-2 (Homo sapiens, UniProt P08253).
T3 construct: made in house; provided by Dr. Gregory Goldberg, Washington University
T3 sequence (P08253 110-660): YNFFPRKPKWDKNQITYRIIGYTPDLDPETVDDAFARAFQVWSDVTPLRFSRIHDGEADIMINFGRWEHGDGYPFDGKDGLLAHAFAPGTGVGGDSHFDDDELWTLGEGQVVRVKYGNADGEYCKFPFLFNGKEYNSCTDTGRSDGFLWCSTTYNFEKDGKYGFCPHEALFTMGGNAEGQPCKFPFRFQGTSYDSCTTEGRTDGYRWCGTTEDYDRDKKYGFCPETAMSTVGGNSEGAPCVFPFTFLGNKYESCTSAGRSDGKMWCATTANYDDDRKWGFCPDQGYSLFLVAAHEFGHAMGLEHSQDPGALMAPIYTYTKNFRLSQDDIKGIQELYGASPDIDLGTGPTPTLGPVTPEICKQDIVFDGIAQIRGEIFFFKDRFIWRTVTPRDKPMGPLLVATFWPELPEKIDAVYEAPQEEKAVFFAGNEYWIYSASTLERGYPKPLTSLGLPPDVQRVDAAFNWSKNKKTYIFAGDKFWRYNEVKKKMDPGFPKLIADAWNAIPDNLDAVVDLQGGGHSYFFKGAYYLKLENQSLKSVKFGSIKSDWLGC
The note with it: recombinant human MMP-2, MCA peptide substrate 4 μM, pH 7.5, room temperature; read-out: MMP-2 IC50. The method, boiled down:
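Assay buffer 100 mM Tris-HCl, 100 mM NaCl, 10 mM CaCl2, pH 7.5. Activated MMP + inhibitor, 5 min RT; then methoxycoumarin peptide substrate, 4 μM final. Readout fluorescence; IC50 calculated.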

By IC50 is commonly meant the concentration that gives 50% inhibition. On to `O=C(Nc1ccc(Cl)c(Cl)c1)N1CCC(C(=O)NO)(S(=O)(=O)c2ccc(Oc3ccc(OC(F)(F)F)cc3)cc2)CC1` [Example 359], for which the IC50 at MMP-1 is greater than 10000 nM; at MMP-13 it was 34.9 nM; at MMP-2, 12.2 nM.
The like results for `O=C(Nc1c(F)cccc1F)N1CCC(C(=O)NO)(S(=O)(=O)c2ccc(Oc3ccc(OC(F)(F)F)cc3)cc2)CC1` [Example 361] were, in that order, 5000 nM, 0.5 nM and less than 0.1 nM.
In the same order, the values of `O=C(Nc1ccc(F)cc1F)N1CCC(C(=O)NO)(S(=O)(=O)c2ccc(Oc3ccc(OC(F)(F)F)cc3)cc2)CC1` [Example 363] are 8800 nM, 0.4 nM and 0.2 nM.
The like results for `O=C(Nc1ccccc1C(F)(F)F)N1CCC(C(=O)NO)(S(=O)(=O)c2ccc(Oc3ccc(OC(F)(F)F)cc3)cc2)CC1` [Example 364] were, in that order, greater than 10000 nM, 1 nM and 0.2 nM.
For the compound `O=C(Nc1ccccc1Cl)N1CCC(C(=O)NO)(S(=O)(=O)c2ccc(Oc3ccc(OC(F)(F)F)cc3)cc2)CC1` [Example 365], the IC50 on MMP-1 was greater than 10000 nM; at MMP-13, 0.3 nM; on MMP-2, 0.1 nM.
As to `O=C(Nc1ccc(C(F)(F)F)cc1)N1CCC(C(=O)NO)(S(=O)(=O)c2ccc(Oc3ccc(OC(F)(F)F)cc3)cc2)CC1` [Example 366], the IC50 at MMP-1 is greater than 10000 nM; at MMP-13, 13 nM; on MMP-2, 2.5 nM.
The like results for `O=C(NO)C1(S(=O)(=O)c2ccc(Oc3ccc(C(F)(F)F)cc3)cc2)CCN(c2ncccc2[N+](=O)[O-])CC1` [Example 374] were, in that order, greater than 10000 nM, 3.3 nM and 4 nM.
Regarding `O=C(NO)C1(S(=O)(=O)c2ccc(Oc3ccc(C(F)(F)F)cc3)cc2)CCN(c2ncccc2C(F)(F)F)CC1` [Example 375], the IC50 at MMP-1 is greater than 10000 nM; on MMP-13, 16.9 nM; at MMP-2, 15.6 nM.
The like results for `CC(=O)Nc1ccc(Oc2ccc(S(=O)(=O)C3(C(=O)NO)CCN(C4CC4)CC3)cc2)cc1` [Example 378] were, in that order, 200 nM, 1.7 nM and 0.3 nM.
In the same order, the values of `O=C(c1ncc[nH]1)N1CCC(C(=O)NO)(S(=O)(=O)c2ccc(Oc3ccc(OC(F)(F)F)cc3)cc2)CC1` [Example 379] are greater than 10000 nM, 0.3 nM and 0.1 nM.
The like results for `Cc1ccc(C(=O)C2CCN(c3ccc(S(=O)(=O)C4(C(=O)NO)CCN(C5CC5)CC4)cc3)CC2)cc1C` [Example 383] were, in that order, greater than 10000 nM, 3 nM and 700 nM.
With `Cn1ccnc1CN1CCC(C(=O)NO)(S(=O)(=O)c2ccc(Oc3ccc(OC(F)(F)F)cc3)cc2)CC1` [Example 386], the IC50 at MMP-1 is 2100 nM; at MMP-13, 0.4 nM; at MMP-2, 0.2 nM.
The like results for `O=C(NO)C1(S(=O)(=O)c2ccc(N3CCC(Sc4ccccc4)CC3)cc2)CCN(C2CC2)CC1` [Example 389] were, in that order, greater than 10000 nM, 1.7 nM and 16.1 nM.
In the case of `O=C(NO)C1(S(=O)(=O)c2ccc(Oc3ccc(OC(F)(F)F)cc3)cc2)CCN(c2ccncc2)CC1` [Example 391], the figures for the IC50 on MMP-1, at MMP-13 and at MMP-2 were 5400 nM, 0.1 nM and less than 0.1 nM, respectively.
As to `O=C(NO)C1(S(=O)(=O)c2ccc(Oc3ccc(OC(F)(F)F)cc3)cc2)CCN(c2cccnc2)CC1` [Example 392], the IC50 on MMP-1 was greater than 10000 nM; at MMP-13, 0.2 nM; on MMP-2 it was 0.1 nM.
For the compound `O=C(c1ccc2ccccc2c1)C1CCN(c2ccc(S(=O)(=O)C3(C(=O)NO)CCN(C4CC4)CC3)cc2)CC1` [Example 393], the IC50 on MMP-1 was greater than 10000 nM; at MMP-13 it was 4.5 nM; on MMP-2, 427 nM.
The like results for `O=C(NO)C1(S(=O)(=O)c2ccc(Oc3ccc(C(F)(F)F)cc3)cc2)CCN(c2ccccn2)CC1` [Example 395] were, in that order, greater than 10000 nM, 0.9 nM and 0.5 nM.
For `O=C(NO)C1(S(=O)(=O)c2ccc(N3CCC(OCc4ccc(F)cc4)CC3)cc2)CCN(C2CC2)CC1` [Example 397], the figures for the IC50 at MMP-1, on MMP-13 and on MMP-2 were greater than 10000 nM, 4.4 nM and 70 nM, respectively.
The like results for `COc1cccc(CO[C@@H]2CCN(c3ccc(S(=O)(=O)C4(C(=O)NO)CCN(C5CC5)CC4)cc3)C2)c1` [Example 398] were, in that order, greater than 10000 nM, 7 nM and 70 nM.
The like results for `O=C(NO)C1(S(=O)(=O)c2ccc(N3CCC(OCc4cccc(C(F)(F)F)c4)CC3)cc2)CCN(C2CC2)CC1` [Example 402] were, in that order, greater than 10000 nM, 15.8 nM and 340 nM.
For `O=C(NO)C1(S(=O)(=O)c2ccc(N3CCC(OCc4ccc(F)c(C(F)(F)F)c4)CC3)cc2)CCN(C2CC2)CC1` [Example 408], the IC50 at MMP-1 was greater than 10000 nM; on MMP-13, 25.1 nM; at MMP-2, 800 nM.
The like results for `O=C(NO)C1(S(=O)(=O)c2ccc(N3CCC(S(=O)(=O)c4ccccc4)CC3)cc2)CCN(C2CC2)CC1` [Example 409] were, in that order, greater than 10000 nM, 22.4 nM and 275 nM.
The like results for `CSc1nccc(N2CCC(C(=O)NO)(S(=O)(=O)c3ccc(Oc4ccc(OC(F)(F)F)cc4)cc3)CC2)n1` [Example 410] were, in that order, greater than 10000 nM, 0.6 nM and 0.25 nM.
Turning to `CCOc1cc(N2CCC(C(=O)NO)(S(=O)(=O)c3ccc(Oc4ccc(OC(F)(F)F)cc4)cc3)CC2)ncn1` [Example 411], the half-inhibitory concentration (IC50) on MMP-1 is greater than 10000 nM; at MMP-13, 0.2 nM; at MMP-2, less than 0.1 nM.
The like results for `CC(=N)N1CCC(C(=O)NO)(S(=O)(=O)c2ccc(Oc3ccc(OC(F)(F)F)cc3)cc2)CC1` [Example 412] were, in that order, 6400 nM, 0.4 nM and 0.2 nM.
On to `O=C(NO)C1(S(=O)(=O)c2ccc(Oc3ccc(OC(F)(F)F)cc3)cc2)CCN(C2=NCCN2)CC1` [Example 413], for which the IC50 was 8000 nM on MMP-1, 1.1 nM at MMP-13 and 0.3 nM on MMP-2.
With `O=C(NO)C1(S(=O)(=O)c2ccc(N3CCC(OCc4ccc(F)cc4C(F)(F)F)CC3)cc2)CCN(C2CC2)CC1` [Example 414], the IC50 was greater than 10000 nM on MMP-1, 50.5 nM at MMP-13 and 1500 nM at MMP-2.
In the same order, the values of `O=C(NO)C1(S(=O)(=O)c2ccc(N3CCC(Sc4ccc(OC(F)(F)F)cc4)CC3)cc2)CCN(C2CC2)CC1` [Example 415] are greater than 10000 nM, 50.4 nM and 246 nM.
In the same order, the values of `O=CN1CCC(C(=O)NO)(S(=O)(=O)c2ccc(Oc3ccc(OC(F)(F)F)cc3)cc2)CC1` [Example 416] are 3000 nM, 0.4 nM and 0.2 nM.
In the same order, the values of `O=C(NO)C1(S(=O)(=O)c2ccc(N3CCC(OCc4ccc(OC(F)(F)F)cc4)CC3)cc2)CCN(C2CC2)CC1` [Example 418] are greater than 10000 nM, 7 nM and 1400 nM.
In the case of `O=C(NO)C1(S(=O)(=O)c2ccc(N3CCC(OCc4ccc(Cl)cc4)CC3)cc2)CCN(C2CC2)CC1` [Example 419], the IC50 is greater than 10000 nM on MMP-1, 4.2 nM on MMP-13 and 400 nM on MMP-2.
In the same order, the values of `O=C(c1ccco1)N1CCC(C(=O)NO)(S(=O)(=O)c2ccc(N3CCC(OCc4ccc(F)cc4)CC3)cc2)CC1` [Example 424] are greater than 10000 nM, 5.5 nM and 80 nM.

These data come from patent US6750228B1, “Aromatic sulfone hydroxamic acid metalloprotease inhibitor” (priority 1997, dated 2004).
